Entries after “also recorded” stand apart in the source; their conditions may differ.
Assays:
[1] = test system: human B-lymphoma cell line; experiment: Cytotoxicity against B-lymphoma cell line; assay type: cell-based; conditions: concentrations up to 50 μM
[2] = test system: mouse bone marrow derived macrophages (BMDMs); experiment: Cytotoxicity against BMDMs; conditions: concentrations up to 50 μM
[3] = test system: TNBS-induced colitis; experiment: TNBS-induced colitis in mice
[4] = test system: Karpas cells; experiment: Accumulation of poly-ubiquitinylated proteins in Karpas cells (anti-ub blot); assay type: cell-based, human; conditions: 24 hours treatment
Protocol: FIGS. 5A-C show experimental results relating to SAR studies and target engagement inside the cells. FIG. 5A is a graph showing experimental results relating to inhibition of i-20S β5i and c-20S β5c by selected dipeptides. […] FIG. 5C is an image of an SDS-page gel showing accumulation of poly-ubiquitinylated (ub) proteins. Karpas cells were treated with dipeptides, or with bortezomib as a control, at indicated concentrations for 24 hours, and the poly-ub proteins in the lysates were blotted with anti-ub antibody and visualized with a second antibody directed against the first antibody and tagged with a dye that absorbs infrared light (Odyssey® CLx imaging system, LICOR).

[5] = molecular target: hu i-20S β5i-subunit (Homo sapiens, UniProt P20618+P28062); experiment: N,C-capped dipeptides IC50, Ac-ANW-AMC fluorescence assay; assay type: biochemical
Protocol: All inhibitory assays for N,C capped dipeptides were performed in a black solid-bottom 96-well plate. In general, compound plates were prepared starting from 10 mM in 3× series dilution to 15 μM. 1 μl of DMSO stock was transferred to a black 96-well plate and 100 μL of reaction mixture were added 15 μM N-acetyl-Alanine-Asparagine-Tryptophan-7-amino-4-methylcourmarin (Ac-ANW-AMC) or 25 μM succinyl-Leucine-Leucine-Valine-Tyrosine-7-amino-4-methyl-courmarin (succ-LLVY-AMC), 0.4 nM hu i-20S β5i-subunit or 0.2 nM hu c-20S β5c-subunit, 0.02% SDS, 1% BSA, 0.5 mM EDTA in 20 mM HEPES buffer at pH7.5. The plates were then spun at 1000 rpm for 1 minute, and the fluorescence units of each well were recorded at λex=360 nm, λem=460 nm for 2 hours. The slopes of the initial linear range of the time course were used to calculate the velocity, and relative activities were normalized to the velocities of the DMSO control.

[6] = test system: Karpas 1106p cells; experiment: Cytotoxicity (LD50) against Karpas lymphoma cells; assay type: cell-based, human; conditions: Table 4
[7] = test system: RAW264 GFP-LC3 cells; experiment: Autophagy induction in RAW264 GFP-LC3 cells; assay type: cell-based, mouse; conditions: 10 nM, 37° C. overnight; bafilomycin A 20 nM 4 hours
Protocol: Prior to fixation with 4% paraformaldehyde, the cells were treated with bafilomycin A (20 nM), an inhibitor of the late phase of autophagy, for 4 hours. Fluorescent images were recorded digitally with a multiphoton microscope. […]

[8] = test system: mouse i-20S β5i; experiment: Predicted inhibition of mouse i-20S β5i over mouse c-20S β5c; assay type: biochemical; conditions: predicted from sequence identity
[9] = test system: proteasome inside the Karpas 1106p cells; experiment: Cell-based Proteasome-Glo assay after compound removal; design: species or system human; conditions: 4 hours, read-out: Proteasome-glo β5-IC50
[10] = test system: Karpas 1106p cells; experiment: Cytotoxicity (LD50) against Karpas lymphoma cells; assay type: cell-based, human; conditions: Table 3
Excerpt: Table 3 lists the inhibition kinetic parameters, selectivity index, and calculated log Ps of selected dipeptides.

[11] = test system: HepG2 human hepatoma cells; experiment: Cytotoxicity against HepG2; assay type: cell-based; conditions: concentrations up to 50 μM
[12] = test system: mouse bone marrow derived macrophages (BMDMs); experiment: Cytokine production in LPS-activated macrophages (ELISA, qPCR); assay type: cell-based
Protocol: Culture supernatants were harvested 24 hours (h) after LPS stimulation and analyzed for cytokine production by enzyme-linked immunosorbent assay (ELISA). Total RNA was isolated 4 h after LPS stimulation and analyzed by real time quantitative polymerase chain reaction (PCR) for IL-12p35 and IL-12/IL-23p40 genes. Data are expressed relative to levels of glyceraldehyde 3-phosphate dehydrogenase (GAPDH) levels and represent three independent experiments.
The dipeptide compounds and their relative inhibitory results on the βcomponent of the human immunoproteasome (β5i) and constitutive proteasome (β5c) are described in Examples 151 and 152.

[13] = test system: 4T1 mammary carcinoma; conditions: i.p. daily 6 mg/kg from Day 10, sacrifice Day 20; p<0.05
[14] = test system: human peripheral blood mononuclear cells; experiment: Cytotoxicity against PBMCs; assay type: cell-based; conditions: concentrations up to 50 μM
[15] = test system: TNBS-induced colitis; conditions: Watanabe et al.; cited from earlier work
[16] = test system: mouse bone marrow derived macrophages (BMDMs); conditions: Muchamuel et al. 2009; cited from earlier work

In the case of CC(C)(C)ONC(=O)C[C@H](NC(=O)CCc1ccccc1)C(=O)N[C@@H](Cc1ccc(F)cc1)C(=O)NCc1cccc2ccccc12 [DPLG-3], the cytotoxicity [1] is reported as “not cytotoxic”, the cytotoxicity [2] is reported as “not cytotoxic” and the adverse effects ([3]; I.P. 3-12 mg/kg, TNBS mice) is reported as “did not cause detectable adverse effects”. The colitis-induced weight loss ([3]; I.P. at day −1, 1 and 3, 3, 6 and 12 mg/kg, dose-dependent) was “strongly inhibited colitis-induced weight loss”, the “colitis-induced weight loss / pathogenesis” value ([3]; one-time i.v. injection (6 mg/kg) at time of TNBS challenge, WT mice) was “strongly inhibited colitis-associated pathogenesis; also recorded: strongly inhibited colitis-induced weight loss” and the “accumulation of poly-ubiquitinylated proteins” value [4] was “did not cause accumulation”. For the same molecule, the mode of inhibition [5] was “competitive inhibition”, the “LD50 Karpas” value [6] was 2.04 µM and the induction of autophagy [7] was “induces autophagy”. The “inhibition of mouse i-20S β5i over mouse c-20S β5c” value [8] was “potently and selectively inhibit”, the IC50 [9] was 110 nM and the LD50 [10] was 2.04 µM. For the same molecule, the cytotoxicity [11] was “not cytotoxic”, the IL-10 production [12] was “no significant effects” and the “sensitivity of IL-12 and IL-23 production vs TNF-α (factor)” value [12] was 10-20. For the same molecule, the “production of IL-12” value ([12]; LPS 1 μg/ml, 24 h, ELISA) was “dose-dependently inhibited”, the “production of IL-12/IL-23p40” value ([12]; LPS 1 μg/ml, 24 h, ELISA) was “dose-dependently inhibited” and the “production of TNF-α” value ([12]; LPS 1 μg/ml, 24 h, ELISA) was “dose-dependently inhibited”. For the same molecule, the “transcription of P35 and P40” value ([12]; mRNA 4 h after LPS, qPCR relative to GAPDH) was “reduced”, the IL-6 production ([12]; on its own) was “dose-dependently induced” and the “tumor size and weight” value [13] was “reducing the size and weight”. For the same molecule, the cytotoxicity [14] was “not cytotoxic”.

For CC(=O)N[C@H]1C(O)O[C@H](CO)[C@@H](O)[C@@H]1O[C@H](C)C(=O)N[C@@H](C)C(=O)N[C@H](CCC(=O)O)C(N)=O (mixture of isomers) [MDP, muramyl dipeptide], the protection from colitis [15] is given as “protected mice from colitis”.

For COc1ccc(C[C@H](NC(=O)[C@H](C)NC(=O)CN2CCOCC2)C(=O)N[C@@H](Cc2ccccc2)C(=O)[C@]2(C)CO2)cc1 [ONX 0914], the “effect on cytokines analyzed” value [16] is given as “inhibitory”.
